# In US8470787B2, “Hydrates of erythromycin salts, preparation and use thereof” (priority 2008, dated 2013):
# Read-outs that look alike come from different tables or passages of the source.
# How the values were obtained:
# Streptococcus viridan = assay: antibacterial activity, tube double dilution method, clinically obtained bacteria; type: cell-based; settings: 23 strains
# Bacillus influenzae = assay: as above; type: cell-based; settings: for MIC50 / MIC90: 17 strains; for MIC: range over 17 strains
# Method: (§1) The antibacterial activities of the hydrates of erythromycin salts are determined by culturing clinically obtained bacteria and measuring in accordance with pharmacological test methods (the tube double dilution method), and the results are shown in the following tables 9, 10, 11 and 12.
# Propionibacterium = assay: as above; type: cell-based; settings: for MIC50 / MIC90: 18 strains; for MIC: range over 18 strains
# Method: as §1
# Bacillus fragilis = assay: as above; type: cell-based; settings: for MIC50 / MIC90: 15 strains; for MIC: range over 15 strains
# Method: as §1
# Pneumococcus = assay: as above; type: cell-based; settings: for MIC50 / MIC90: 18 strains; for MIC: range over 18 strains
# Method: as §1
# [1] = test system: Streptococcus hemolyticus; assay: as above; type: cell-based; settings: for MIC50 / MIC90: 16 strains; for MIC: range over 16 strains
# Method: as §1
# Neisseria gonorrhoeae = assay: as above; type: cell-based; settings: for MIC50 / MIC90: 16 strains; for MIC: range over 16 strains
# Method: as §1
# [2] = accelerated stability test (sealed vial, 30° C., HPLC content and related substances); type: physicochemical
# Method: The hydrates of erythromycin salts according to the present invention can be stably stored. A sample of the above hydrates was sealed in a vial, and an accelerated stability test was conducted at 30° C. and changes of the content and related substances were measured by a HPLC method (C18 reverse phase column, 0.01M KH2PO4-acetonitrile (60:40) as the mobile phase, detective wavelength: 215 nm, column temperature: 35° C., flow rate: 1.0 ml/min) (upon different hydrates of erythromycin salts, such as crystalline hydrates of erythromycin thiocyanate, the pH of the mobile phase can be adjusted and KH2PO4 can be changed into NaH2PO4, the detective wavelength can be changed into 210 nm, and the column temperature can be set at 35-55° C., such as 50° C. for analysis and measurement). […] As compared to the anhydrous of erythromycin salt, the hydrates of erythromycin salts according to the present invention have a lower hygroscopicity, i.e., has a better stability of hygroscopicity, which facilitates the package and storage thereof, or is a more advantageously stable form for storage relative to the anhydrous.
# [3] = test system: Staphylococcus epidermidis; assay: antibacterial activity, tube double dilution method, clinically obtained bacteria; type: cell-based; settings: 21 strains
# Staphylococcus aureus = assay: as above; type: cell-based; settings: 26 strains
# Escherichia coli = assay: as above; type: cell-based; settings: 21 strains
# Anaerobe = assay: as above; type: cell-based
# Method: as §1
# [4] = hygroscopic test according to China Pharmacopeia CP2005; type: physicochemical; settings: RH 75%, 25° C., 48 h
compound,measurement,setting,value
CC[C@H]1OC(=O)[C@H](C)[C@@H](O[C@H]2C[C@@](C)(OC)[C@@H](O)[C@H](C)O2)[C@H](C)[C@@H](O[C@@H]2O[C@H](C)C[C@H](N(C)C)[C@H]2O)[C@](C)(O)C[C@@H](C)C(=O)[C@H](C)[C@@H](O)[C@]1(C)O [erythromycin lactobionate trihydrate],MIC50,"Streptococcus viridan; Streptococcus, read-out: MIC50",0.06 µg/mL
same,MIC90,"Streptococcus viridan; Streptococcus, read-out: MIC90",0.5 µg/mL
same,MIC50,"Bacillus influenzae; Bacillus, read-out: MIC50",4 µg/mL
same,MIC90,"Bacillus influenzae; Bacillus, read-out: MIC90",8 µg/mL
same,MIC,"Bacillus influenzae; Bacillus, read-out: MIC",0.12 to 8 µg/mL
same,MIC50,"Propionibacterium; Propionibacterium, read-out: MIC50",0.06 µg/mL
same,MIC90,"Propionibacterium; Propionibacterium, read-out: MIC90",0.12 µg/mL
same,MIC,"Propionibacterium; Propionibacterium, read-out: MIC",0.03 to 16 µg/mL
same,MIC50,"Bacillus fragilis; Bacillus, read-out: MIC50",4 µg/mL
same,MIC90,"Bacillus fragilis; Bacillus, read-out: MIC90",16 µg/mL
same,MIC,"Bacillus fragilis; Bacillus, read-out: MIC",0.5 to 64 µg/mL
same,MIC50,Pneumococcus; read-out: MIC50,0.06 µg/mL
same,MIC90,Pneumococcus; read-out: MIC90,1 µg/mL
same,MIC,Pneumococcus; read-out: MIC,0.03 to 0.5 µg/mL
same,MIC50,"[1]; Streptococcus pyogenes, read-out: MIC50",0.06 µg/mL
same,MIC90,"[1]; Streptococcus pyogenes, read-out: MIC90",32 µg/mL
same,MIC,[1],0.03 to 32 µg/mL
same,MIC50,"Neisseria gonorrhoeae; Neisseria gonorrhoeae, read-out: MIC50",0.25 µg/mL
same,MIC90,"Neisseria gonorrhoeae; Neisseria gonorrhoeae, read-out: MIC90",1 µg/mL
same,MIC,"Neisseria gonorrhoeae; Neisseria gonorrhoeae, read-out: MIC",0.06 to 2 µg/mL
same,Assay (%),[2]; month 0,99.9%
same,Form,[2]; month 0,off-white powder
same,Assay (%),[2]; month 1,100.2%
same,Form,[2]; month 1,off-white powder
same,Assay (%),[2]; month 2,99.8%
same,Form,[2]; month 2,off-white powder
same,Assay (%),[2]; month 3,100.1%
same,Form,[2]; month 3,off-white powder
same,Assay (%),[2]; month 6,99.9%
same,Form,[2]; month 6,off-white powder
same,MIC50,"[3]; Staphylococcus epidermidis, read-out: MIC50",16 µg/mL
same,MIC50,"Staphylococcus aureus; Staphylococcus aureus, read-out: MIC50",0.12 µg/mL
same,MIC50,"Escherichia coli; Escherichia coli, read-out: MIC50",4 µg/mL
CC[C@H]1OC(=O)[C@H](C)[C@@H](O[C@H]2C[C@@](C)(OC)[C@@H](O)[C@H](C)O2)[C@H](C)[C@@H](O[C@@H]2O[C@H](C)C[C@H](N(C)C)[C@H]2O)[C@](C)(O)C[C@@H](C)C(=O)[C@H](C)[C@@H](O)[C@]1(C)O.N#CS.O.O [erythromycin thiocyanate dihydrate],MIC50,Streptococcus viridan,0.06 µg/mL
same,MIC90,Streptococcus viridan,0.5 µg/mL
same,MIC50,Bacillus influenzae,4 µg/mL
same,MIC90,Bacillus influenzae,8 µg/mL
same,MIC,Bacillus influenzae,0.12 to 8 µg/mL
same,MIC50,Propionibacterium,0.06 µg/mL
same,MIC90,Propionibacterium,0.12 µg/mL
same,MIC,Propionibacterium,0.03 to 16 µg/mL
same,MIC50,Bacillus fragilis,4 µg/mL
same,MIC90,Bacillus fragilis,16 µg/mL
same,MIC,Bacillus fragilis,0.5 to 64 µg/mL
same,MIC50,Pneumococcus,0.06 µg/mL
same,MIC90,Pneumococcus,1 µg/mL
same,MIC,Pneumococcus,0.03 to 0.5 µg/mL
same,MIC50,Anaerobe; 16 strains,2 µg/mL
same,MIC90,Anaerobe; 16 strains,16 µg/mL
same,MIC,Anaerobe; range over 16 strains,0.06 to 64 µg/mL
same,MIC50,[1],0.06 µg/mL
same,MIC90,[1],32 µg/mL
same,MIC,[1],0.03 to 32 µg/mL
same,MIC50,Neisseria gonorrhoeae,0.25 µg/mL
same,MIC90,Neisseria gonorrhoeae,1 µg/mL
same,MIC,Neisseria gonorrhoeae,0.06 to 2 µg/mL
same,Assay (%),[2]; month 0,99.9%
same,Form,[2]; month 0,off-white powder
same,Assay (%),[2]; month 1,99.9%
same,Form,[2]; month 1,off-white powder
same,Assay (%),[2]; month 2,100.4%
same,Form,[2]; month 2,off-white powder
same,Assay (%),[2]; month 3,100.2%
same,Form,[2]; month 3,off-white powder
same,Assay (%),[2]; month 6,99.8%
same,Form,[2]; month 6,off-white powder
same,MIC50,[3],16 µg/mL
same,MIC50,Staphylococcus aureus,0.12 µg/mL
same,MIC50,Escherichia coli,4 µg/mL
CC[C@H]1OC(=O)[C@H](C)[C@@H](O[C@H]2C[C@@](C)(OC)[C@@H](O)[C@H](C)O2)[C@H](C)[C@@H](O[C@@H]2O[C@H](C)C[C@H](N(C)C)[C@H]2O)[C@](C)(O)C[C@@H](C)C(=O)[C@H](C)[C@@H](O)[C@]1(C)O.N#CS.O.O.O [erythromycin thiocyanate trihydrate],Assay (%),[2]; month 0,99.8%
same,Form,[2]; month 0,off-white powder
same,Assay (%),[2]; month 1,99.9%
same,Form,[2]; month 1,off-white powder
same,Assay (%),[2]; month 2,100.6%
same,Form,[2]; month 2,off-white powder
same,Assay (%),[2]; month 3,100.3%
same,Form,[2]; month 3,off-white powder
same,Assay (%),[2]; month 6,100.1%
same,Form,[2]; month 6,off-white powder
erythromycin thiocyanate hemitri(1.5)hydrate,Assay (%),[2]; month 0,99.9%
same,Form,[2]; month 0,off-white powder
same,Assay (%),[2]; month 1,100.3%
same,Form,[2]; month 1,off-white powder
same,Assay (%),[2]; month 2,100.5%
same,Form,[2]; month 2,off-white powder
same,Assay (%),[2]; month 3,100.1%
same,Form,[2]; month 3,off-white powder
same,Assay (%),[2]; month 6,100.2%
same,Form,[2]; month 6,off-white powder
same,"Hygroscopic weight gain %, relative to 0 h",[4],3.12%
